# Assay results published in US20230357292A1, “MULTI-COORDINATE GOLD-PHOSPHINE COMPOUNDS AND METHOD OF USE” (University of Kentucky Research Foundation, priority 2020, published 2023).
# What was measured:
# A2780 (ovarian) = details: A2780 (ovarian), 4,000 cells/well, treated 72 h, mean ± SD (n = 3)
# Procedure: (§1) All cell lines (OVCAR8, A2780, H460, and MDA-MB-231) were cultivated in RPMI or DMEM supplemented with 10% FBS, 1% penicillin/streptomycin, and 1% amphotericin. All cells were grown at 310K in a humidified atmosphere containing 5% CO2.
# (§2) Various established human ovarian, lung, and breast cancer cell lines were seeded in 96-well plates (4000 cells/well) and were incubated with RPMI 1640 or DMEM (100 μL) supplemented with 10% FBS, 1% penicillin/streptomycin, and 1% amphotericin for 24 h and at 37° C. They were then treated with AuPhos compounds at increasing concentrations for 72 h from stock solutions following serial dilutions, in which AuPhos stock solutions were prepared in DMSO/media mixture (% v/v=20:80). Thereafter, cellular viability was assessed via the established crystal violet colorimetric assay. In brief, cells were fixed with 50 μL of a 1% glutaraldehyde solution and placed in an incubator (37° C., 5% CO2) for 1 hour. The plates were washed with water by running them under a gentle flow of tap water. The plates were air-dried, and crystal violet reagent was added to each well and allowed to incubate at room temperature for 20 min. The plates were washed with water and dried again. Methanol (200 μL/well) was added to each well, and the measurements of absorbance were subsequently performed using a Biotek Synergy H1 Plate Reader at 570 nm (peak absorbance).
# H460 (lung) = details: H460 (lung), 4,000 cells/well, treated 72 h, mean ± SD (n = 3)
# Procedure: as §1, §2
# OVCAR8 (ovarian) = details: OVCAR8 (ovarian), 4,000 cells/well, treated 72 h, mean ± SD (n = 3)
# Procedure: as §1, §2
smiles,measurement,setting,value
"[Cl-].[Cl][Au-]1([c]2ccccc2-c2ccccn2)[P+](c2ccccc2)(c2ccccc2)c2ccccc2[P+]1(c1ccccc1)c1ccccc1 [AuPhos-89, (2-phenylpyridine)[1,2-Bis(diphenylphosphino)benzene]gold(III) Dichloride]",IC50,A2780 (ovarian),0.34 ± 0.07 µM
same,IC50,H460 (lung),0.72 ± 0.16 µM
same,IC50,OVCAR8 (ovarian),1.16 ± 0.04 µM
